How the values were obtained:
[1] = Pharmacokinetic evaluation test in mice
Description: (§3) Test objective: Male CD-1 mice were used as test animals. The drug concentrations in plasma of mice at various times were determined by LC/MS/MS after intravenous and oral administration of the test compounds. The pharmacokinetic behavior of the test compounds in mice was studied and their pharmacokinetic characteristics were evaluated.
(§4) Test methods: test animals: 60 healthy adult male CD-1 mice, aged 6-8 weeks and weighing about 30 g, and divided into 10 groups, including IV groups (intravenous injection group, five groups), with 6 mice in each group; and PO groups (oral administration group, five groups), with 6 mice in each group.
(§5) Preparation of drug solution: IV group: Taking 10 mL sample solution as an example, 2 mg sample was weighed, 0.5 mL DMSO and 1 mL Solutol HS 15 were sequentially added, and then 8.5 mL 6% HP-β-CD was added, and stirred ultrasonically to obtain a clear solution of 0.2 mg/mL.
(§6) PO group 1: Taking 10 mL sample solution as an example, 10 mg sample was weighed, 0.5 mL DMSO and 1 mL Solutol HS 15 were sequentially added, and then 8.5 mL 6% HP-β-CD was added, and stirred ultrasonically to obtain a 1 mg/mL solution.
(§7) PO group 2: A 3 mg/mL solution of the sample was prepared according to the preparation method for PO group 1.
(§8) Administration: After overnight fasting, the mice in the IV group were administered with a volume of 5 mL/kg at a dose of 1 mg/kg.
(§9) PO group 1: The mice were administered with a volume of 10 mL/kg at a dose of 10 mg/kg.
(§10) PO group 2: The mice were administered with a volume of 10 mL/kg at a dose of 30 mg/kg.
(§11) Experimental operations: Male CD-1 mice in the intravenous injection group and oral administration group were given the test compound, respectively. After that, 50 μl of blood was periodically collected into a K2EDTA anticoagulation tube at 0.0833, 0.25, 0.5, 1, 2, 4, 6, 8 and 24 hrs, and the plasma was separated by centrifugation at 4° C. and 8000 rpm for 15 min. The plasma was stored in dry ice at −80° C. 4 hrs after administration, the animals were allowed to free access to food. The contents of the test compounds in plasma of mice after intravenous and oral administration were determined by LC/MS/MS. The linear range of the method was 1-3000 ng/ml. The plasma samples were treated with acetonitrile to precipitate the protein and then analyzed.

AGS p-ERK = assay: Cell assay for p-ERK (HTRF, Advance ERK phospho-T202/Y204 kit); type: cell-based, human; settings: AGS cells (KRAS G12D), 3 hrs with compound, inhibition of p-ERK level
Description: AGS was purchased from ATCC, Article No.: CRL-1739; F12K was purchased from Gibco, Article No.: 21127-022; FBS was purchased from Gibco, Article No.: 10099-141C; the trypsin (containing EDTA) was purchased from Gibco, Article No.: 25200-072; DMSO was purchased from VWRAMRESCO, Article No.: 0231-500ML; the 96-well cell culture plate was purchased from Corning, Article No.: 3599; the white-bottom opaque 96-well plate was purchased from Cisbio, Article No.: 66PL96025; Advance ERK phospho-T202/Y204 kit was purchased from Cisbio, Article No.: 64AERPEH; the cell counter was purchased from CHEMOMETEC, model: NC-200; the microplate reader was purchased from PerkinElmer, model: Envison.
AGS, an endogenous human gastric adenocarcinoma cell line with KRAS^G12D mutation, was cultured in F12K+10% FBS medium. On the first day of the experiment, cells in logarithmic growth period were digested with trypsin (containing EDTA), collected and counted, and about 20,000 cells/well were inoculated in a 96-well cell culture plate and cultured overnight in an incubator with 5% CO2. 1000× compound stock solutions with gradient concentrations of 3.16 times were prepared with DMSO, and 200-fold diluted to 5× compound stock solutions with the above culture medium. The 5× compound stock solution was added to each cell culture well on the second day after cell inoculation, to give a final concentration of 1× and DMSO content of 0.1%. DMSO was used as experimental control. After adding the compound, the cells were continuously cultured for 3 hrs. Then, the culture medium in the well was removed, and 50 μl/well of cell lysis buffer (from Advanced ERK phospho-T202/Y204 kit, the same hereinafter) was added, and mixed uniformly. The cells were cultured for 30 min. Then 16 μl of the mixture was transferred to a white-bottom opaque 96-well plate, and 16 μl of the cell lysis buffer was added to an additional well and used as a blank. After that, 4 μl of p-ERK HTRF antibody mixed solution (from Advanced ERK Phos Pho-T202/Y204 Kit) was added to each well. After incubation for 4 hrs, the fluorescence value (RLU) of HTRF was read on a microplate reader. The inhibition rate of the compound on p-ERK level was calculated by the formula IR (%)=(RLU of control−RLU of compound)/(RLU of control−RLU of blank)×100%. The compound concentration and the corresponding inhibition rate on p-ERK level in the cells were fitted by using Prism 8 four-parameter method, and the IC50 value was calculated.

[2] = tested on: AsPC-1 human pancreatic cancer cell with KRAS G12D mutation; assay: Cell proliferation inhibition experiment, 3D CellTiter-Glo, AsPC-1; type: cell-based; settings: AsPC-1 cells, 3D spheroid, 5 days
Text: (§1) AsPC-1 was purchased from ATCC, Article No.: CRL-1682; AGS was purchased from ATCC, Article No.: CRL-1739; RPMI1640 was purchased from Gibco, Article No.: 11875-093 2235123; F12K was purchased from Gibco, Article No.: 21127-022; FBS was purchased from Gibco, Article No.: 10099-141C; the trypsin (containing EDTA) was purchased from Gibco, Article No.: 25200-072; CellTiter Glo-3D was purchased from Progema, Article No.: G9683; the 384-well spheroid plate was purchased from Corning, Article No.: 3830; the white-bottom opaque 384-well plate was purchased from Corning, Article No.: 3570; the cell counter was purchased from CHEMOMETEC, model: NC-200; the microplate reader was purchased from PerkinElmer, model: Envison;
(§2) AsPC-1, an endogenous human pancreatic cancer cell AsPC-1 with KRAS^G12D mutation, was cultured in RPMI-1640 medium containing 10% FBS. AGS, a human gastric cancer cell line with KRAS^G12D mutation, was cultured in F-12K medium containing 10% FBS. Cells in logarithmic growth period were digested with trypsin (containing EDTA), collected and counted. 800 AsPC-1 cells/well or 400 […] were inoculated in a 384-well spheroid plate, and cultured overnight in an incubator with 5% CO2 to establish a 3D cell model. 1000× compound stock solutions with gradient concentrations of 3.16 times were prepared with DMSO, and 100-fold diluted to 10× compound stock solutions with the culture medium. The 10× compound stock solution was added to each cell culture well on the second day after cell inoculation, to give a final concentration of 1× and DMSO content of 0.1%. DMSO was used as the control, and the culture medium was used as the blank. After the compound was added, the cells were cultured for 5 days. 30 μl CellTiter-Glo working solution was added to each well, and mixed uniformly. The cells were incubated for 30 min, and allowed to stand at room temperature for 30 min. 40 μl of the mixture was transferred to a white-bottom opaque 384-well plate, and the luminescence was read on a microplate reader. The inhibition rate on cell proliferation was calculated by a formula: IR (%)=(RLU of control−RLU of compound)/(RLU of control−RLU of blank)×100%. The gradient concentrations of the compound and the corresponding inhibition rates were fitted by using XLFit four-parameter method, and the IC50 value was calculated. […] The results of some exemplary compounds are shown in Table 2 below (—means not tested).

[3] = tested on: AGS human gastric cancer cell line with KRAS G12D mutation; assay: Cell proliferation inhibition experiment, 3D CellTiter-Glo, AGS; type: cell-based; settings: AGS cells, 3D spheroid, 5 days
Text: as §1, §2

in vivo = settings: male, CD-1, mouse, po, 30 mg/kg
Description: as §3, §4, §5, §6, §7, §8, §9, §10, §11

[4] = male, CD-1, mouse, plasma, po, 10 mg/kg

IC50 (AGS p-ERK) [nM]	IC50 [2] [nM]	IC50 [3] [nM]	Compound	IC50 (AGS p-ERK; Homo sapiens) [nM]	IC50 ([2]; Homo sapiens, ASPC1, 120 h) [nM]	IC50 ([3]; Homo sapiens, 120 h) [nM]	other results
			CCc1cccc2cc(O)cc(-c3nc4c5c(nc(OC[C@@]67CCCN6C[C@H](F)C7)nc5c3F)N3C[C@H]5CC[C@H](N5)[C@H]3CO4)c12 [Z140-1, 5-ethyl-4-((5aS,6S,9R)-1-fluoro-12-(((2R,7aS s)-2-fluorotetrahydro-1H-pyrrolizin-7a(5H)-yl)methoxy)-5a,6,7,8,9,10-hexahydro-5H-4-oxa-3,10a,11,13,14-pentaaza-6,9-methanonaphtho[1,8-ab]hepten-2-yl)naphthalen-2-ol]				AUC(0-t) [1, 4]: 42.1 ng·h/mL; bioavailability [1, 4]: 2.33%
1.58	32.8	2.53	C#Cc1c(F)ccc2cc(O)cc(-c3nc4c5c(nc(OC[C@@]67CCCN6C[C@H](F)C7)nc5c3F)N3C[C@H]5CC[C@H](N5)[C@H]3CO4)c12 [Z131-1, 5-ethynyl-6-fluoro-4-((5aS,6S,9R)-1-fluoro-12-(((2R,7aS)-2-fluorotetrahydro-1H-pyrrolizin-7a(5H)-yl)methoxy)-5a,6,7,8,9,10-hexahydro-5H-4-oxo-3,10a,11,13,14-pentaaza-6,9-methanonaphtho[1,8-ab]hepten-2-yl)naphthalen-2-ol]				F (%) bioavailability ([1]; PO group, 10 mpk, male CD-1 mice): 0.9%; AUClast ([1]; PO group, 10 mpk, male CD-1 mice, plasma): 40.4 ng·h/mL
33.4	93.7	113	C#Cc1c(F)ccc2cccc(-c3nc4c5c(nc(OC[C@]67CCCN6CCC7=C)nc5c3F)N3C[C@H]5CC[C@H](N5)[C@H]3[C@H](C)O4)c12 [Z639, (5S,5aS,6S,9R)-2-(8-ethynyl-7-fluoronaphthalen-1-yl)-1-fluoro-5-methyl-12-(((R)-1-methylenetetrahydro-1H-pyrrolizin-7a(5H)-yl)methoxy)-5a,6,7,8,9,10-hexahydro-5H-4-oxa-3,10a,11,13,14-pentaaza-6,9-methanonaphtho[1,8-ab]heptene]				
			[2H]C([2H])([2H])[C@@H]1Oc2nc(-c3cc(N)cc4cccc(C#C)c34)c(F)c3nc(OC[C@@]45CCCN4CC(=C(F)F)C5)nc(c23)N2C[C@H]3CC[C@H](N3)[C@@H]12 [Z1044, 4-((5S,5aS,6S,9R)-12-(((S)-2-(difluoromethylene)tetrahydro-1H-pyrrolizin-7a(5H)-yl)methoxy)-1-fluoro-5-(methyl-d3)-5a,6,7,8,9,10-hexahydro-5H-4-oxa-3,10a,11,13,14-pentaaza-6,9-methanonaphtho[1,8-ab]hepten-2-yl)-5-ethynylnaphthalen-2-amine]	0.34	0.92	0.53	
			C#Cc1cccc2cc(N)cc(-c3nc4c5c(nc(OC[C@@]67CCCN6CCC7=C(F)F)nc5c3F)N3C[C@H]5CC[C@H](N5)[C@H]3[C@H](C)O4)c12 (single isomer, unassigned) [Z960]	0.25	1.58	3.96	
			[2H]C([2H])([2H])[C@@H]1Oc2nc(-c3cc(N)cc(Cl)c3C(F)(F)F)c(F)c3nc(OC[C@]45CCCN4CCC5=C)nc(c23)N2C[C@H]3CC[C@H](N3)[C@@H]12 [Z1060, 3-chloro-5-((5S,5aS,6S,9R)-1-fluoro-5-(methyl-d3)-12-(((R)-1-methylenetetrahydro-1H-pyrrolizin-7a(5H)-yl)methoxy)-5a,6,7,8,9,10-hexahydro-5H-4-oxo-3,10a,11,13,14-pentaaza-6,9-methanonaphtho[1,8-ab]hepten-2-yl)-4-(trifluoromethyl) aniline]	0.72	1.63	0.19	
			C#Cc1cccc2cc(N)c(F)c(-c3nc4c5c(nc(OCC6(CN7CCOCC7)CC6)nc5c3F)N3C[C@H]5CC[C@H](N5)[C@H]3[C@H](C)O4)c12 [Z957, 5-ethynyl-3-fluoro-4-((5S,5aS,6S,9R)-1-fluoro-5-methyl-12-((1-(morpholinemethyl)cyclopropyl)methoxy)-5a,6,7,8,9,10-hexahydro-5H-4-oxa-3,10a,11,13,14-pentaaza-6,9-methanonaphtho[1,8-ab]hepten-2-yl)naphthalen-2-amine]	0.97	6.51	7.61	
6.61	17.4	19.3	C#Cc1c(F)ccc2cccc(-c3nc4c5c(nc(OC[C@]67C[C@@H](F)CN6CCC7=C)nc5c3F)N3C[C@H]5CC[C@H](N5)[C@H]3[C@H](C)O4)c12 [Z689, (5S,5aS,6S,9R)-2-(8-ethynyl-7-fluoronaphthalen-1-yl)-1-fluoro-12-(((6R,7aR)-6-fluoro-1-methylenetetrahydro-1H-pyrrolizin-7a(5H)-yl)methoxy)-5-methyl-5a,6,7,8,9,10-hexahydro-5H-4-oxa-3,10a,11,13,14-pentaaza-6,9-methanonaphtho[1,8-ab]heptene]				
			C[C@@H]1Oc2nc(-c3cc(N)cc(Cl)c3C(F)(F)F)c(F)c3nc(OC[C@@]45CCCN4CC(=C(F)F)C5)nc(c23)N2C[C@H]3CC[C@H](N3)[C@@H]12 [Z1084, 3-chloro-5-((5S,5aS,6S,9R)-12-(((S)-2-(difluoromethylene)tetrahydro-1H-pyrrolizin-7a(5H)-yl)methoxy)-1-fluoro-5-methyl-5a,6,7,8,9,10-hexahydro-5H-4-oxa-3,10a,11,13,14-pentaaza-6,9-methanonaphtho[1,8-ab]hepten-2-yl)-4-(trifluoromethyl) aniline]	0.12	1.23	0.38	AUC(0-t) (in vivo): 2440 ng·h/mL; bioavailability (in vivo): 20.7%
			C#Cc1cccc2cc(N)cc(-c3nc4c5c(nc(OCC6(CN7CCC(=C(F)F)C7)CC6)nc5c3F)N3C[C@H]5CC[C@H](N5)[C@H]3[C@H](C)O4)c12 [Z744]	0.51	1.99	2.86	
61	170	45.4	(5S,5aS,6S,9R)-12-((2,6-dimethyltetrahydro-1H-pyrrolizin-7a(5H)-methoxy)-2-(8-ethynyl-6-fluoronaphthalen-1-yl)-1-fluoro-5-methyl-5a,6,7,8,9,10-hexahydro-5H-4-oxa-3,10a,11,13,14-pentaaza-6,9-methanonaphtho[1,8-ab]heptene [Z551]				
			C#Cc1cccc2cc(N)cc(-c3nc4c5c(nc(OCC67CC(F)(F)CN6CCC7=C)nc5c3F)N3C[C@H]5CC[C@H](N5)[C@H]3[C@H](C)O4)c12 (stereo partly drawn) [Z738]	12.7	29.9	44.2	
